We go through ten compounds from patent publication US5744121A (priority 1996, dated 1998).

The subject of one series is 5-HT1A receptor. The series is described as follows: Blocking studies: regional brain uptake ratios in rats. The series is classed as in vivo. The note with it: pretreated rats, 30 min post iv injection of tracer. Here is the method:
In order to further characterize the in vivo brain uptake of 1a in rats, blocking studies were carried out to determine changes of the ratios of regional brain uptake. […] Ratios for each region were calculated based on the % dose/gram of each region divided by the same in CB. […] (HP: hippocampus; CB: cerebellum; HY: hypothalamus; CX: cortex; ST: striatum).

The test system of series [1] is 5-HT1A receptor (rat hippocampal membranes). The following applies: cited from earlier work.
Series [2] is described as follows: Biodistribution in rats after iv injection. It counts as in vivo, Male Sprague-Dawley rats. The note with it: average of 3 rats ± SD. Here is the method: Male Sprague-Dawley rats (225-300 g), allowed free access to food and water, were used for an in vivo biodistribution study. While the rats were under ether anesthesia, 0.2 mL of a saline solution containing [^123 I]1a and 1b (8-10 μCi) was injected directly into the femoral vein, and rats were sacrificed at various time points postinjection by cardiac excision under ether anesthesia. The organs of interest were removed and weighed and the radioactivity was counted with a Packard […] automatic counter (Model 5000). The percentage dose per organ was calculated by a comparison of the tissue counts to suitably diluted aliquots of the injected material.

Series [3] has as its target T1, 5-HT1A receptor (rat hippocampal homogenates) (Rattus norvegicus, UniProt P19327).
T1 construct: in rat hippocampal membrane preparations; from tissue; host or cells: rat hippocampus (membrane preparations / tissue homogenates)
T1 sequence (P19327 1-422): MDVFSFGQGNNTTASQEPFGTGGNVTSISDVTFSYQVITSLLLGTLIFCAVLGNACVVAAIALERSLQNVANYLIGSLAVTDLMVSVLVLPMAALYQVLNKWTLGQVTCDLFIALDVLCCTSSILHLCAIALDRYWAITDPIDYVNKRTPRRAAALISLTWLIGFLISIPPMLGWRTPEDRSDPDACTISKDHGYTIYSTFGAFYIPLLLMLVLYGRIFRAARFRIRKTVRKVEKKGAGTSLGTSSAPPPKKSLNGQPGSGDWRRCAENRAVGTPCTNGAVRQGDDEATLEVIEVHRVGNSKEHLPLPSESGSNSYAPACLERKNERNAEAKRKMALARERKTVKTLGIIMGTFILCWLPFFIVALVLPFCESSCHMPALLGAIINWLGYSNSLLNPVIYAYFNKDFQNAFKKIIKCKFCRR
Description: Inhibition of [^125 I]-p-MPP binding to rat hippocampal homogenates.

Series [4] is described as follows: Regional brain distribution in rats after iv injection. The series is classed as in vivo, Male Sprague-Dawley rats. The note with it: rat; for tissue uptake at 0.05 h: 3 min; for tissue uptake at 2 h: 120 min.
Description: While the rats were under ether anesthesia, 0.2 mL of a saline solution containing [^123 I]1a and 1b (8-10 μCi) was injected directly into the femoral vein, and rats were sacrificed at various time points postinjection by cardiac excision under ether anesthesia. The organs of interest were removed and weighed and the radioactivity was counted with a Packard garnma automatic counter (Model 5000). The percentage dose per organ was calculated by a comparison of the tissue counts to suitably diluted aliquots of the injected material. Total activities of blood and muscle were calculated under the assumption that they were 7% and 40% of the total body weight, respectively.
By dissecting, weighing and counting samples from different brain regions (cortex, striatum, hippocampus, hypothalamus and cerebellum), the percentage dose/gram of the sample was calculated by comparing the sample counts with the count of the diluted initial dose.
Series [5] concerns the target T1, 5-HT1A receptor (rat hippocampal homogenates). Description: Inhibition of [^125 I]-8-OH-PIPAT binding to rat hippocampal homogenates. The following applies: ligand [^125 I]-8-OH-PIPAT. The text has this: The 5-HT1A binding affinity of p-, m-, o- MPPI, p-fluoro- and p-nitro-MPP derivatives (1a-f) in rat hippocampal membrane preparations with [^123 ]
The nature of series [6]: Stability of the radiolabelled product on storage. It counts as physicochemical. The note with it: -20° C., at least four weeks, HPLC; 40320 min.
Series [7] has as its target T2, 5-HT1A receptor (rat hippocampus tissue homogenates) (Rattus norvegicus, UniProt P19327).
T2 construct: in rat hippocampal membrane preparations; from tissue; host or cells: rat hippocampus (membrane preparations / tissue homogenates)
T2 sequence (P19327 1-422): T1 sequence (P19327 1-422)
Description: Saturation binding of [^125 I]p-MPPI to rat hippocampus tissue homogenates.

[8] abbreviates: ligand [^125 I]-p-MPP, rat hippocampal homogenates, read-out: Ki.
The mark [9] stands for this setting: cerebellum, iv, rats (Table IV), read-out: Regional distribution, cerebellum.
Where [10] appears, read: cortex, iv, rats (Table IV), read-out: Regional distribution, cortex.
Where [11] appears, read: hippocampus, iv, rats (Table IV), read-out: Regional distribution, hippocampus.
Where [12] appears, read: hypothalamus, iv, rats (Table IV), read-out: Regional distribution, hypothalamus.
[13] abbreviates: striatum, iv, rats (Table IV), read-out: Regional distribution, striatum.

SMILES strings stand for the structures. Read-outs that look alike come from different tables or passages of the source.

As for `CCCN(CCC)C1CCc2cccc(O)c2C1` (racemic) [(± 8-OH-DPAT), 8-hydroxy-2-(N,N-di-n-propyl)aminotetralin, reference compound], the “specific uptake of [^123 I] or [^125 I]1a in the hippocampus after pretreatment” value in the series on 5-HT1A receptor is given as “mark decrease”.

As for `COc1ccccc1N1CCN(C[C@@H](C(=O)NC(C)(C)C)c2ccccc2)CC1` [(5)-WAY 100135, N-tert-butyl-3-(4-(-2-methoxyphenyl)piperazin-1-yl)-2-phenylpropionamide], the selectivity result in series [1] (5-HT1A receptor) is “selective antagonist at both somatodendritic and postsynaptic receptor”. The IC50 in series [1] (rat hippocampal membranes) is 15 nM.

`COc1ccccc1N1CCN(CCN(C(=O)c2cccc(I)c2)c2ccccn2)CC1` [Compound 1b, 4-(2'-methoxy)phenyl-1-[2"-(N-2"-pyridinyl)-m-iodobenzamido]ethyl piperazine] yielded a Brain uptake in series [2] (2 min) of 0.76 % dose/organ. Moreover, the values for the Ki in series [3] (setting [8]) and in series [5] were 2.46 ± 0.14 nM and 1.7 ± 0.1 nM, respectively. In series [4] (hippocampus, 60 minutes after iv injection, ^123 I labeled, read-out: Uptake in hippocampal tissue), the tissue uptake at 1 h was found to be 0.013 %ID/g. For the same compound, the purity on storage in series [6] is recorded as more than 95%.

On to `COc1ccccc1N1CCN(CCN(C(=O)c2ccc(F)cc2)c2ccccn2)CC1` [Compound 1d], for which, in series [5], the Ki is 3.3 ± 0.8 nM.

In series [5], `COc1ccccc1N1CCN(CCN(C(=O)c2ccc(I)cc2)c2ncccn2)CC1` [Compound 1g, 4(2'-methoxy)phenyl-1-[2'-(N-2"-pyrimidinyl)-p-iodobenzamido] ethy piperazine] had a Ki of 6.08 ± 0.8 nM.

Take `COc1cccc(OC)c1OCCNCC1COc2ccccc2O1` (stereo not shown) [WB 4101]: in series [3] (setting [8]), the Ki came out at 5 ± 0.5 nM.

As for `COc1ccccc1N1CCN(CCN(C(=O)c2cccc([123I])c2)c2ccccn2)CC1` [[^123 I] 1b], in series [2] (2 min), the Blood uptake is recorded as 5.06 ± 0.32 % dose/organ, the Brain uptake is given as 0.76 ± 0.05 % dose/organ, the Heart uptake turned out to be 0.77 ± 0.08 % dose/organ and the Kidney uptake came out at 3.67 ± 0.22 % dose/organ. In series [2] (2 min), this compound returned a Liver uptake of 25.72 ± 3.29 % dose/organ, a Lung uptake of 1.87 ± 0.08 % dose/organ, a Muscle uptake of 14.98 ± 1.16 % dose/organ and a Skin uptake of 10.16 ± 3.32 % dose/organ. In series [2] (2 min), this compound yielded a Spleen uptake of 0.68 ± 0.12 % dose/organ and a Thyroid uptake of 0.07 ± 0.02 % dose/organ. In series [2] (30 min), this compound yielded a Blood uptake of 2.27 ± 0.24 % dose/organ, a Brain uptake of 0.07 ± 0.004 % dose/organ, a Heart uptake of 0.11 ± 0.008 % dose/organ and a Kidney uptake of 1.18 ± 0.11 % dose/organ. For the same compound, in series [2] (30 min), the Liver uptake was found to be 8.04 ± 0.63 % dose/organ, the Lung uptake was 0.31 ± 0.004 % dose/organ, the Muscle uptake is 10.13 ± 4.90 % dose/organ and the Skin uptake worked out at 13.71 ± 0.52 % dose/organ. Also, in series [2] (30 min), the Spleen uptake is listed as 0.09 ± 0.01 % dose/organ and the Thyroid uptake worked out at 0.06 ± 0.02 % dose/organ. In series [2] (60 min), the Blood uptake was determined as 1.21 ± 0.08 % dose/organ, the Brain uptake was 0.02 ± 0.006 % dose/organ, the Heart uptake is 0.05 ± 0.005 % dose/organ and the Kidney uptake amounted to 0.54 ± 0.007 % dose/organ. Besides, in series [2] (60 min), the Liver uptake is on record as 4.58 ± 0.30 % dose/organ, the Lung uptake is 0.13 ± 0.02 % dose/organ, the Muscle uptake was found to be 4.75 ± 1.76 % dose/organ and the Skin uptake is on record as 5.85 ± 1.99 % dose/organ. In series [2] (60 min), this compound displayed a Spleen uptake of 0.04 ± 0.006 % dose/organ and a Thyroid uptake of 0.05 ± 0.02 % dose/organ. Besides, in series [2] (120 min), the Blood uptake was found to be 1.08 ± 0.13 % dose/organ, the Brain uptake worked out at 0.016 ± 0.0005 % dose/organ, the Heart uptake amounted to 0.03 ± 0.003 % dose/organ and the Kidney uptake is given as 0.36 ± 0.008 % dose/organ. In series [2] (120 min), this compound came in with a Liver uptake of 4.13 ± 0.44 % dose/organ, a Lung uptake of 0.10 ± 0.004 % dose/organ, a Muscle uptake of 5.56 ± 3.54 % dose/organ and a Skin uptake of 3.66 ± 0.68 % dose/organ. In series [2] (120 min), this compound had a Spleen uptake of 0.029 ± 0.002 % dose/organ and a Thyroid uptake of 0.11 ± 0.07 % dose/organ. For the same compound, in series [4] (setting [9]), the tissue uptake at 2 min turned out to be 0.47 ± 0.01 %ID/g, the tissue uptake at 0.05 h was 0.039 ± 0.003 %ID/g and the tissue uptake at 2 h is 0.008 ± 0.0004 %ID/g. For the same compound, the tissue uptake at 1 h in series [4] (cerebellum, 60 min, iv, rats (Table IV), read-out: Regional distribution, cerebellum) amounted to 0.014 ± 0.004 %ID/g. For the same compound, in series [4] (setting [10]), the tissue uptake at 2 min worked out at 0.5 ± 0.03 %ID/g, the tissue uptake at 0.05 h was 0.043 ± 0.002 %ID/g and the tissue uptake at 2 h is 0.008 ± 0.0008 %ID/g. Besides, the tissue uptake at 1 h in series [4] (cortex, 60 min, iv, rats (Table IV), read-out: Regional distribution, cortex) turned out to be 0.015 ± 0.005 %ID/g. Besides, in series [4] (setting [11]), the tissue uptake at 2 min came to 0.54 ± 0.03 %ID/g, the tissue uptake at 0.05 h turned out to be 0.051 ± 0.005 %ID/g and the tissue uptake at 2 h was determined as 0.006 ± 0.001 %ID/g. In series [4] (hippocampus, 60 min, iv, rats (Table IV), read-out: Regional distribution, hippocampus), the tissue uptake at 1 h was determined as 0.013 ± 0.004 %ID/g. Also, in series [4] (setting [12]), the tissue uptake at 2 min is 0.5 ± 0.04 %ID/g, the tissue uptake at 0.05 h was 0.042 ± 0.003 %ID/g and the tissue uptake at 2 h is 0.01 ± 0.002 %ID/g. Also, in series [4] (hypothalamus, 60 min, iv, rats (Table IV), read-out: Regional distribution, hypothalamus), the tissue uptake at 1 h was 0.015 ± 0.005 %ID/g. Further, in series [4] (setting [13]), the tissue uptake at 2 min stood at 0.51 ± 0.003 %ID/g, the tissue uptake at 0.05 h was found to be 0.042 ± 0.004 %ID/g and the tissue uptake at 2 h was 0.006 ± 0.0008 %ID/g. Moreover, in series [4] (striatum, 60 min, iv, rats (Table IV), read-out: Regional distribution, striatum), the tissue uptake at 1 h came to 0.012 ± 0.003 %ID/g.

For the compound `COc1ccccc1N1CCN(CCN(C(=O)c2ccc([125I])cc2)c2ccccn2)CC1` [[^125 I]-MPPI], the Bmax in series [7] (37° C., 15 min, 50 mM Tris-HCl pH 7.4, 2 mM MgCl2, 10 μM 5-HT for nonspecific binding) is recorded as 264 fmol/mg of protein. Further, the Kd in series [7] (37° C., 15 min, 50 mM Tris-HCl pH 7.4, 2 mM MgCl2, 10 μM 5-HT for nonspecific binding, read-out: Kd (FIG. 1)) came to 0.36 nM; in series [7] (rat hippocampal homogenates, Kung, Unpublished data, read-out: Kd (Table I footnote)), 0.3 nM.

Take `O=C(c1ccc(F)cc1)C1CCN(CCn2c(=O)[nH]c3ccccc3c2=O)CC1` [hetanserin]: in series [3], affinity was put at a Ki of 1970 ± 98 nM.

With `O=C(CCCN1CCC2(CC1)C(=O)NCN2c1ccccc1)c1ccc(F)cc1` [spiperone], the Ki in series [3] (setting [8]) is 12.2 ± 2.2 nM.
